{"source": "patent US12357611B2", "about": "“Sulcardine administration for treatment of acute atrial fibrillation” (HUYABIO International, LLC, priority 2018, dated 2025)", "key": {"[1]": {"experiment": "Phase 1 single ascending iv dose trial: pharmacokinetics (plasma sulcardine)", "format": "in vivo, human", "conditions": "iv infusion, various dosages, FIG. 1", "protocol": "(§1) HBI-3000 (sulcardine sulfate) was administered to human subjects according to the protocol provided in ClinicalTrials.gov Identifier: NCT03397641. That protocol is incorporated herein by reference in its entirety.\n(§2) Objective: Provided herein are the safety, tolerability, pharmacokinetics and electrocardiogram (ECG) results of a Phase 1 single ascending dose trial of intravenous (iv) HBI-3000 in healthy subjects.\n(§3) Methods: […] subjects were randomized to 6 cohorts of 8 subjects to receive 1 of 5 single ascending iv doses (Table 2) of HBI-3000 or placebo (6:2), with 2 cohorts receiving the 600 mg dose. Doses of RBI-3000 ranged from 20 mg (Cohort A), 60 mg (Cohort B), 180 mg (Cohort C), 360 mg (Cohort D), to 600 mg (Cohort E and F). Drug was a lyophilized powder, reconstituted to […] then diluted in saline for delivery via intravenous infusion as a 50 mL solution over 30 minutes."}, "[2]": {"conditions": "Chen et al.; cited from earlier work"}, "healthy subjects [3]": {"tested_on": "healthy subjects", "experiment": "Phase 1 single ascending iv dose trial: continuous 12-lead Holter ECG, baseline and placebo subtracted (ΔΔ) ECG intervals at Cmax", "format": "in vivo, human", "conditions": "single iv doses 20 to 600 mg", "protocol": "as §1, §2, §3\nContinuous 12-lead Holter ECG data were recorded at baseline and 11 time points thereafter. Mean baseline and placebo subtracted (ΔΔ) ECG intervals (QTcF, HR, PR, QRS, and P-wave duration [PDur]) and T-wave segments (J to T peak [JTp] and T peak to T end [TpTe]) were calculated at Cmax for each dose.\nTable 2 summarizes ECG data at Cmax for each dose, as predicted by mixed-effects modeling. […] The increases in QRS and PDur are consistent with block of INa-Peak. […]"}, "healthy subjects [4]": {"tested_on": "healthy subjects", "experiment": "Phase 1 single ascending iv dose trial: safety and tolerability", "format": "in vivo", "conditions": "single iv doses 20 to 600 mg", "protocol": "as §1, §2, §3"}}, "note": "Counter-ions that a name gives are not always drawn.", "data": [{"smiles": "COc1ccc(S(=O)(=O)NCc2cc(CN3CCCC3)c(O)c(CN3CCCC3)c2)cc1", "note": "[sulcardine, N-[4-hydroxy-3,5-bis(1-pyrrolidinylmethyl)benzyl]-4-methoxybenzenesulfonamide]", "values": [{"measurement": "removal from plasma after Cmax", "setting": "[1]", "value": "largely removed or isolated from plasma at 1.0 hours"}, {"measurement": "half-life for oral administration", "setting": "[2]", "value": "about 16 hours"}]}, {"smiles": "COc1ccc(S(=O)(=O)NCc2cc(CN3CCCC3)c(O)c(CN3CCCC3)c2)cc1", "note": "[HBI-3000, sulcardine sulfate]", "values": [{"measurement": "dose dependence of ECG parameter changes", "setting": "healthy subjects [3]", "value": "dose-proportional changes in all ECG parameters"}, {"measurement": "removal from plasma after Cmax", "setting": "[1]; listed as sulcardine sulfate", "value": "quickly removed or isolated from plasma"}, {"measurement": "tolerability, dose limiting adverse events or arrhythmias", "setting": "healthy subjects [4]", "value": "well tolerated with no dose limiting adverse events or arrhythmias observed"}]}]}
